Laboratory results published in patent US20260055113A1, “HETEROARYL COMPOUNDS FOR THE TREATMENT OF CANCER” (Hoffmann-La Roche Inc., priority 2022, published 2026).

Key:
CD73 = CD73 (Homo sapiens (Human), UniProt P21589); test: CD73 cellular assay (MDA-MB-231 cells, malachite readout); type: cell-based; settings: AMP substrate, 45 min, read-out: Cellular IC50 against CD73
Method: After incubating with compounds for 30 minutes, 40 μL of AMP working solution (200 μM AMP in assay buffer) was added into each well in the assay plate. The assay plate was then incubated in a 5% CO2 incubator (Thermo Fisher Scientific) at 37° C. for 45 min. After the reaction was completed, 50 μL of the supernatants was collected and transferred into a new 384 well plate. 10 μL of Malachite A was added to each well in the assay plate and incubated for 10 minutes. 10 μL of Malachite B was then added to each corresponding well of the plate and incubated for 30 minutes.

[1] = Human microsomal stability assay; type: in vitro ADME; settings: human liver microsomes 0.5 mg/mL, 1 μM test compound, 37° C., pH 7.4
Method: Human liver microsomes (Cat. NO.: 452117, Corning, USA) were preincubated with test compound for 10 minutes at 37° C. in 100 mM potassium phosphate buffer, pH 7.4. The reactions were initiated by adding NADPH regenerating system. The final incubation mixtures contained 1 μM test compound, 0.5 mg/mL liver microsomal protein, 1 mM MgCl2, 1 mM NADP, 1 unit/mL isocitric dehydrogenase and 6 mM isocitric acid in 100 mM potassium phosphate buffer, pH 7.4. After incubation times of 0, 3, 6, 9, 15 and 30 minutes at 37° C., 300 μL of cold ACN (including internal standard) was added to 100 μL incubation mixture to terminate the reaction. Following precipitation and centrifugation, 100 μL supernatant will be taken out and added 300 μL water. The amount of compound remaining in the samples was determined by LC-MS/MS. Controls of no NADPH regenerating system at zero and 30 minutes were also prepared and analyzed. The results were categorized as: low (<7.0 mL/min/kg), medium (7.0-16.2 mL/min/kg) and high (16.2-23.2 mL/min/kg).

Sequence of CD73 (P21589 27-574): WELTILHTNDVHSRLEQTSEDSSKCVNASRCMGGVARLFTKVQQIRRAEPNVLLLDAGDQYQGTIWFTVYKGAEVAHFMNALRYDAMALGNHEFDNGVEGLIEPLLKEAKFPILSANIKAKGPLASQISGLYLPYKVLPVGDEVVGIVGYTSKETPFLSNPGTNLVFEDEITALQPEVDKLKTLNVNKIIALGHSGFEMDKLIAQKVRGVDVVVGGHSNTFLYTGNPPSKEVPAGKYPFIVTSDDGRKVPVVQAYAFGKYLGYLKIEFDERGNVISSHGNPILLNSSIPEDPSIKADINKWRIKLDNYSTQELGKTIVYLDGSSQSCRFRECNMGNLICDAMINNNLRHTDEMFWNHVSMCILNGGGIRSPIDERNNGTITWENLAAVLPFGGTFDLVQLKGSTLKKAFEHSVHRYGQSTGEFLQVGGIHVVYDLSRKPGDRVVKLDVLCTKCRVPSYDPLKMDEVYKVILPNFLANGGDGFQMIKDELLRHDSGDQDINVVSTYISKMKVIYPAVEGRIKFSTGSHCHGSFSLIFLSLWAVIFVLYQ

SMILES | IC50 (CD73) | CL (h) [1]
C[C@H](Oc1nn(C)c2nnc(-c3c[nH]c(=O)[nH]c3=O)cc12)c1ccc(F)cn1 [Example 43, 5-[3-[(1S)-1-(5-fluoro-2-pyridyl)ethoxy]-1-methyl-pyrazolo[3,4-c]pyridazin-5-yl]-1H-pyrimidine-2,4-dione] | 3.7 nM | 6.15 mL/min/kg
CC(C1CCCC1)N(C)c1nn(C)c2nnc(-c3c[nH]c(=O)[nH]c3=O)cc12 (stereo not shown) [Example 35, 5-[3-[1-cyclopentylethyl(methyl)amino]-1-methyl-pyrazolo[3,4-c]pyridazin-5-yl]-1H-pyrimidine-2,4-dione] | 2.1 nM | 
Cn1nc(C2(c3ccccc3)CC2)c2cc(-c3c[nH]c(=O)[nH]c3=O)nnc21 [Example 6, 5-[1-methyl-3-(1-phenylcyclopropyl)pyrazolo[3,4-c]pyridazin-5-yl]-1H-pyrimidine-2,4-dione] | 12.9 nM | 6.15 mL/min/kg
Cc1cccc([C@@H](Oc2nn(C)c3nnc(-c4c[nH]c(=O)[nH]c4=O)cc23)C(F)F)n1 [Example 33A, 5-[3-[(1R)-2,2-difluoro-1-(6-methyl-2-pyridyl)ethoxy]-1-methyl-pyrazolo[3,4-c]pyridazin-5-yl]-1H-pyrimidine-2,4-dione] |  | 6.15 mL/min/kg
Cn1nc(O[C@H](c2ccccn2)C(F)F)c2cc(-c3c[nH]c(=O)[nH]c3=O)nnc21 [Example 31A, 5-[3-[(1R)-2,2-difluoro-1-(2-pyridyl)ethoxy]-1-methyl-pyrazolo[3,4-c]pyridazin-5-yl]-1H-pyrimidine-2,4-dione] |  | 6.15 mL/min/kg
Cn1nc(O[C@@H](c2ccc(F)cn2)C(F)F)c2cc(-c3c[nH]c(=O)[nH]c3=O)nnc21 [Example 32B, 5-[3-[(1S)-2,2-difluoro-1-(5-fluoro-2-pyridyl)ethoxy]-1-methyl-pyrazolo[3,4-c]pyridazin-5-yl]-1H-pyrimidine-2,4-dione] |  | 6.15 mL/min/kg
Cn1ncc2nnc(-c3c[nH]c(=O)[nH]c3=O)cc21 [Example 3, 5-(1-methylpyrazolo[4,3-c]pyridazin-6-yl)-1H-pyrimidine-2,4-dione] | 104 nM | 
Cn1nc(O[C@H](c2ccc(F)cn2)C(F)F)c2cc(-c3c[nH]c(=O)[nH]c3=O)nnc21 [Example 32A, 5-[3-[(1R)-2,2-difluoro-1-(5-fluoro-2-pyridyl)ethoxy]-1-methyl-pyrazolo[3,4-c]pyridazin-5-yl]-1H-pyrimidine-2,4-dione] |  | 6.15 mL/min/kg
C[C@H](Oc1nn(C)c2nnc(-c3c[nH]c(=O)[nH]c3=O)cc12)c1ccc(Cl)nn1 [Example 45, 5-[3-[(1S)-1-(6-chloropyridazin-3-yl)ethoxy]-1-methyl-pyrazolo[3,4-c]pyridazin-5-yl]-1H-pyrimidine-2,4-dione] | 9.9 nM | 6.15 mL/min/kg
Cn1nc(O[C@@H](c2ccccn2)C(F)(F)F)c2cc(-c3c[nH]c(=O)[nH]c3=O)nnc21 [Example 29B, 5-[1-methyl-3-[(1S)-2,2,2-trifluoro-1-(2-pyridyl)ethoxy]pyrazolo[3,4-c]pyridazin-5-yl]-1H-pyrimidine-2,4-dione] |  | 6.15 mL/min/kg
Cc1cccc([C@H](Oc2nn(C)c3nnc(-c4c[nH]c(=O)[nH]c4=O)cc23)C(F)F)n1 [Example 33B, 5-[3-[(1S)-2,2-difluoro-1-(6-methyl-2-pyridyl)ethoxy]-1-methyl-pyrazolo[3,4-c]pyridazin-5-yl]-1H-pyrimidine-2,4-dione] |  | 6.15 mL/min/kg
Cn1nc(O[C@H](c2ccccc2)C(F)F)c2cc(-c3c[nH]c(=O)[nH]c3=O)nnc21 [Example 28, 5-[3-[(1R)-2,2-difluoro-1-phenyl-ethoxy]-1-methyl-pyrazolo[3,4-c]pyridazin-5-yl]-1H-pyrimidine-2,4-dione] |  | 6.15 mL/min/kg
CC(c1ccccc1)c1nn(C)c2nnc(-c3c[nH]c(=O)[nH]c3=O)cc12 (stereo not shown) [Example 5, 5-[1-methyl-3-(1-phenylethyl)pyrazolo[3,4-c]pyridazin-5-yl]-1H-pyrimidine-2,4-dione] |  | 6.15 mL/min/kg
CC(Oc1nn(C)c2nnc(-c3c[nH]c(=O)[nH]c3=O)cc12)c1cccc(Cl)c1 (stereo not shown) [Example 14, 5-[3-[1-(3-chlorophenyl)ethoxy]-1-methyl-pyrazolo[3,4-c]pyridazin-5-yl]-1H-pyrimidine-2,4-dione] | 4 nM | 7.01 mL/min/kg
Cc1cccc([C@H](C)Oc2nn(C)c3nnc(-c4c[nH]c(=O)[nH]c4=O)cc23)n1 [Example 41, 5-[1-methyl-3-[(1S)-1-(6-methyl-2-pyridyl)ethoxy]pyrazolo[3,4-c]pyridazin-5-yl]-1H-pyrimidine-2,4-dione] |  | 8.11 mL/min/kg
CC(Oc1nn(C)c2nnc(-c3c[nH]c(=O)[nH]c3=O)cc12)c1ccc(C#N)cc1 (stereo not shown) [Example 12, 4-[1-[5-(2,4-dioxo-1H-pyrimidin-5-yl)-1-methyl-pyrazolo[3,4-c]pyridazin-3-yl]oxyethyl]benzonitrile] | 3.4 nM | 6.15 mL/min/kg
CC(Oc1nn(C)c2nnc(-c3c[nH]c(=O)[nH]c3=O)cc12)c1ccccc1Cl (stereo not shown) [Example 13, 5-[3-[1-(2-chlorophenyl)ethoxy]-1-methyl-pyrazolo[3,4-c]pyridazin-5-yl]-1H-pyrimidine-2,4-dione] | 5.5 nM | 7.84 mL/min/kg
Cn1nc(Cl)c2nnc(-c3c[nH]c(=O)[nH]c3=O)cc21 [Example 9, 5-(3-chloro-1-methyl-pyrazolo[4,3-c]pyridazin-6-yl)-1H-pyrimidine-2,4-dione] | 46.7 nM | 6.15 mL/min/kg
CC(Oc1nn(C)c2nnc(-c3c[nH]c(=O)[nH]c3=O)cc12)c1ccncc1 (stereo not shown) [Example 19, 5-[1-methyl-3-[1-(4-pyridyl)ethoxy]pyrazolo[3,4-c]pyridazin-5-yl]-1H-pyrimidine-2,4-dione] | 3.9 nM | 9.03 mL/min/kg
CC(Oc1nn(C)c2nnc(-c3c[nH]c(=O)[nH]c3=O)cc12)c1ccc(Cl)cc1 (stereo not shown) [Example 15, 5-[3-[1-(4-chlorophenyl)ethoxy]-1-methyl-pyrazolo[3,4-c]pyridazin-5-yl]-1H-pyrimidine-2,4-dione] | 4.1 nM | 6.15 mL/min/kg
Cc1nn(C)c2nnc(-c3c[nH]c(=O)[nH]c3=O)cc12 [Example 1, 5-(1,3-dimethylpyrazolo[3,4-c]pyridazin-5-yl)-1H-pyrimidine-2,4-dione] | 56.9 nM | 8.14 mL/min/kg
Cn1nc(O[C@@H](c2ccccc2)C(F)(F)F)c2cc(-c3c[nH]c(=O)[nH]c3=O)nnc21 [Example 30B, 5-[1-methyl-3-[(1S)-2,2,2-trifluoro-1-phenyl-ethoxy]pyrazolo[3,4-c]pyridazin-5-yl]-1H-pyrimidine-2,4-dione] |  | 8.44 mL/min/kg
CC(Oc1nn(C)c2nnc(-c3c[nH]c(=O)[nH]c3=O)cc12)c1cccnc1 (stereo not shown) [Example 18, 5-[1-methyl-3-[1-(3-pyridyl)ethoxy]pyrazolo[3,4-c]pyridazin-5-yl]-1H-pyrimidine-2,4-dione] | 4.3 nM | 6.22 mL/min/kg
Cc1nc([C@H](C)Oc2nn(C)c3nnc(-c4c[nH]c(=O)[nH]c4=O)cc23)ccc1F [Example 40, 5-[3-[(1S)-1-(5-fluoro-6-methyl-2-pyridyl)ethoxy]-1-methyl-pyrazolo[3,4-c]pyridazin-5-yl]-1H-pyrimidine-2,4-dione] |  | 6.15 mL/min/kg
Cn1nnc2nnc(-c3c[nH]c(=O)[nH]c3=O)cc21 [Example 4, 5-(1-methyltriazolo[4,5-c]pyridazin-6-yl)-1H-pyrimidine-2,4-dione] | 159 nM | 6.15 mL/min/kg
CC(Oc1nn(C)c2nnc(-c3c[nH]c(=O)[nH]c3=O)cc12)c1nc2ccccc2o1 (stereo not shown) [Example 25, 5-[3-[1-(1,3-benzoxazol-2-yl)ethoxy]-1-methyl-pyrazolo[3,4-c]pyridazin-5-yl]-1H-pyrimidine-2,4-dione] | 8 nM | 8.85 mL/min/kg
CC(Oc1nn(C)c2nnc(-c3c[nH]c(=O)[nH]c3=O)cc12)c1ccccc1 (stereo not shown) [Example 10, 5-[1-methyl-3-(1-phenylethoxy)pyrazolo[3,4-c]pyridazin-5-yl]-1H-pyrimidine-2,4-dione] |  | 6.15 mL/min/kg
Cn1nc(O[C@@H](c2ccccn2)C(F)F)c2cc(-c3c[nH]c(=O)[nH]c3=O)nnc21 [Example 31B, 5-[3-[(1S)-2,2-difluoro-1-(2-pyridyl)ethoxy]-1-methyl-pyrazolo[3,4-c]pyridazin-5-yl]-1H-pyrimidine-2,4-dione] |  | 6.15 mL/min/kg
CC(Oc1nn(C)c2nnc(-c3c[nH]c(=O)[nH]c3=O)cc12)c1nn(C)cc1Cl (stereo not shown) [Example 23, 5-[3-[1-(4-chloro-1-methyl-pyrazol-3-yl)ethoxy]-1-methyl-pyrazolo[3,4-c]pyridazin-5-yl]-1H-pyrimidine-2,4-dione] | 58.6 nM | 
CC(N(C)c1nn(C)c2nnc(-c3c[nH]c(=O)[nH]c3=O)cc12)C(C)(C)C (stereo not shown) [Example 34, 5-[1-methyl-3-[methyl(1,2,2-trimethylpropyl)amino]pyrazolo[3,4-c]pyridazin-5-yl]-1H-pyrimidine-2,4-dione] | 5.5 nM | 
